Laboratory results reported in ChEMBL document CHEMBL1150078, “A Novel Class of Non-Peptidic Endothelin Antagonists Isolated from the Medicinal Herb Phyllanthus niruri” (J Nat Prod, 1995).
The source made the active and inactive calls. The rule behind the calls is not given here.

Key:
Type in all cases: cell-based
Endothelin-1 receptor [1] = biological target: T1, Endothelin-1 receptor (Homo sapiens, UniProt P25101); assay: Displacement of [125I]endothelin-1 from human recombinant ETA receptor expressed in CHO cells
T1 sequence (P25101 whole entry): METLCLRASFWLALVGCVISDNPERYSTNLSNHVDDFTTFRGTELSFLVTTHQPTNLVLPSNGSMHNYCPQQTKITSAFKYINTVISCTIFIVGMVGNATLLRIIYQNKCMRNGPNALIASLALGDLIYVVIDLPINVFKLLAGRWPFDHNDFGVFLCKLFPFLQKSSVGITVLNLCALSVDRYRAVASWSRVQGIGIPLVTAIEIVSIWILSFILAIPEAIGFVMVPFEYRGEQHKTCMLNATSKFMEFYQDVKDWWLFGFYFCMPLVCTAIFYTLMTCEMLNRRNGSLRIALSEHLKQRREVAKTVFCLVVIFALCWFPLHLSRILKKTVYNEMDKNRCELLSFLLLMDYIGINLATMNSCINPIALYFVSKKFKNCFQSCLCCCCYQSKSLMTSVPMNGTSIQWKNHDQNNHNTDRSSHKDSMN

Endothelin-1 receptor [2] = biological target: T2, Endothelin-1 receptor (Rattus norvegicus, UniProt P26684); assay: Displacement of [125I]endothelin-1 from ETA receptor in rat A10 cells by scintillation counting
T2 sequence (P26684 whole entry): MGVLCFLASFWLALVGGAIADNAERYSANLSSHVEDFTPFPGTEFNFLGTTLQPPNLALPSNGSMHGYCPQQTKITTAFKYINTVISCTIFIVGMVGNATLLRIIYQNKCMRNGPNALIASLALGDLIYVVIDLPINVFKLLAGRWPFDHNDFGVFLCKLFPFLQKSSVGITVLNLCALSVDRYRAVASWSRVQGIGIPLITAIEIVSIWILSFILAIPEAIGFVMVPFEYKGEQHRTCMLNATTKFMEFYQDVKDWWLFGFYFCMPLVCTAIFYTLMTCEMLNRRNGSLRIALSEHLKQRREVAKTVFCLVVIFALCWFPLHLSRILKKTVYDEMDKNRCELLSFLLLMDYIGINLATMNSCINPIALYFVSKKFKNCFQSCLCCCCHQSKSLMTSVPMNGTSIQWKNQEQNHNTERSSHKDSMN

[3] = biological target: T3, Endothelin receptor type B (Homo sapiens, UniProt P24530); assay: Displacement of [125I]endothelin-1 from human recombinant ETB receptor expressed in CHO cells
T3 sequence (P24530 whole entry): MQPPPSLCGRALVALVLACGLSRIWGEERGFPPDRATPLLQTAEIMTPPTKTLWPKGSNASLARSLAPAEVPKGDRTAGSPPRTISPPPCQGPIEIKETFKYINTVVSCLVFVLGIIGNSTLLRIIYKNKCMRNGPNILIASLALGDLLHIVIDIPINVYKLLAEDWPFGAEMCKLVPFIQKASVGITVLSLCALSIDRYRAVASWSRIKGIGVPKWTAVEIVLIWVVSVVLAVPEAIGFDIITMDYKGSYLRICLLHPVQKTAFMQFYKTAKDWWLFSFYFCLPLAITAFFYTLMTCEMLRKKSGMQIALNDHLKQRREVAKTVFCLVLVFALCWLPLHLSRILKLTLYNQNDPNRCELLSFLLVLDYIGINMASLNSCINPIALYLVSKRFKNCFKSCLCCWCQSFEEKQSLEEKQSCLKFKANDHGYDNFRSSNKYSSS

[4] = biological target: T4, Endothelin-1 receptor (Homo sapiens) (UniProt P25101); assay: Activity at human recombinant ETA receptor expressed in CHO cells assessed as inhibition of endothelin-1-induced increase in extracellular acidification rate at 20 uM by microphysiometry
T4 sequence (whole entry): T1 sequence (P25101 whole entry)

[5] = biological target: T4, Endothelin-1 receptor (Homo sapiens); assay: Activity at human recombinant ETA receptor expressed in CHO cells assessed as inhibition of endothelin-1-induced increase in extracellular acidification rate at 100 uM by microphysiometry
[6] = biological target: T5, Endothelin receptor type B (Homo sapiens) (UniProt P24530); assay: Activity at human recombinant ETB receptor expressed in CHO cells assessed as inhibition of endothelin-1-induced increase in extracellular acidification rate at 100 uM by microphysiometry
T5 sequence (whole entry): T3 sequence (P24530 whole entry)

[7] = biological target: T5, Endothelin receptor type B (Homo sapiens); assay: Activity at human recombinant ETB receptor expressed in CHO cells assessed as inhibition of endothelin-1-induced increase in extracellular acidification rate at 20 uM by microphysiometry

IC50 (Endothelin-1 receptor [1]) [µM]	IC50 (Endothelin-1 receptor [2]) [µM]	IC50 [3] [µM]	inhibition [4] [%]	inhibition [5] [%]	Activity [6]	Activity [7]	SMILES
160							COc1cc(C)c(OC)c2c1C[C@@H](C(=O)O)C[C@H]2c1ccccc1
40	580	> 500	28	39	inactive	inactive	COC[C@@H]1Cc2cc(OC)c3c(c2[C@H](c2ccc(OC)c(OC)c2)[C@H]1COC)OCO3 [HYPOPHYLLANTHIN]
75	400	> 500					COC[C@@H]1Cc2cc3c(c(OC)c2[C@H](c2ccc(OC)c(OC)c2)[C@H]1COC)OCO3 [NIRTETRALIN]

SMILES	IC50 (Endothelin-1 receptor [1]) [µM]	IC50 (Endothelin-1 receptor [2]) [µM]	IC50 [3] [µM]	inhibition [4] [%]	inhibition [5] [%]	Activity [6]	Activity [7]
COC[C@H](Cc1ccc(OC)c(OC)c1)[C@H](COC)Cc1ccc(OC)c(OC)c1 [PHYLLANTHIN]	> 1000	> 1000	> 500				
